Measurements from ChEMBL document CHEMBL3885881, “DrugMatrix”.

Species: Rattus norvegicus
Assay: DrugMatrix - Regimen: Daily Repeat
Assay type: toxicity, organism-based, Sprague-Dawley
Set-up: regimen Daily Repeat, gender Male, age 6-8 weeks
Conditions: in vivo, po, route oral GAVAGE, vehicle .5 % CMC; for ABSOLUTE BASOPHIL / ABSOLUTE EOSINOPHIL / ABSOLUTE LYMPHOCYTE / ABSOLUTE MONOCYTE / ABSOLUTE SEGMENTED NEUTROPHIL / BASOPHIL / EOSINOPHIL / ERYTHROCYTE COUNT / HEMATOCRIT / HEMOGLOBIN / LEUKOCYTE COUNT / LYMPHOCYTE / MEAN CORPUSCULAR HEMOGLOBIN / MEAN CORPUSCULAR HEMOGLOBIN CONCENTRATION / MEAN CORPUSCULAR VOLUME / MONOCYTE / NEUTROPHIL / NUCLEATED RED BLOOD CELLS / PLATELET COUNT: tissue Blood; for ALANINE AMINOTRANSFERASE / ALBUMIN / ALKALINE PHOSPHATASE / ASPARTATE AMINOTRANSFERASE / BLOOD UREA NITROGEN / CARBON DIOXIDE / CHLORIDE / CHOLESTEROL / CREATINE PHOSPHOKINASE / CREATININE / GLUCOSE / LACTATE DEHYDROGENASE / LIPASE / PHOSPHORUS / POTASSIUM / SODIUM / TOTAL BILIRUBIN / TOTAL PROTEIN / URIC ACID: tissue Plasma
[1] = 50 mg/kg, 120 h, dose level Low, time 5 day
[2] = 2500 mg/kg, 72 h, dose level High, time 3 day
[3] = 2500 mg/kg, 120 h, dose level High, time 5 day

Question: With CC(/C=C1\SC(=S)N(CC(=O)O)C1=O)=C\c1ccccc1 as the molecule, how does the “ABSOLUTE BASOPHIL” value [1] read?
Answer: 0 CELLS/uL

Question: What about the “ABSOLUTE EOSINOPHIL” value [1] of the same molecule?
Answer: 0 CELLS/uL

Question: And the “ABSOLUTE LYMPHOCYTE” value [1]?
Answer: 8755.33 CELLS/uL

Question: What about the “ABSOLUTE MONOCYTE” value [1] of the same molecule?
Answer: 98 CELLS/uL

Question: And the “ABSOLUTE SEGMENTED NEUTROPHIL” value [1]?
Answer: 946.67 CELLS/uL

Question: And the BASOPHIL [1]?
Answer: 0%

Question: What about the EOSINOPHIL [1] of the same molecule?
Answer: 0%

Question: What about the “ERYTHROCYTE COUNT” value [1] of the same molecule?
Answer: 5.47 x10E6/uL

Question: What about the HEMATOCRIT [1] of the same molecule?
Answer: 34.63%

Question: And the HEMOGLOBIN [1]?
Answer: 14.03 G/DL

Question: What about the “LEUKOCYTE COUNT” value [1] of the same molecule?
Answer: 9.8 x10E3/uL

Question: What about the LYMPHOCYTE [1] of the same molecule?
Answer: 89.67%

Question: What about the “MEAN CORPUSCULAR HEMOGLOBIN” value [1] of the same molecule?
Answer: 25.7 pg

Question: What about the “MEAN CORPUSCULAR HEMOGLOBIN CONCENTRATION” value [1] of the same molecule?
Answer: 40.53 G/DL

Question: And the “MEAN CORPUSCULAR VOLUME” value [1]?
Answer: 63.33 fL

Question: And the MONOCYTE [1]?
Answer: 1%

Question: What about the NEUTROPHIL [1] of the same molecule?
Answer: 9.33%

Question: And the “NUCLEATED RED BLOOD CELLS” value [1]?
Answer: 0 /100WBC

Question: And the “PLATELET COUNT” value [1]?
Answer: 1226 x10E3/uL

Question: And the “ALANINE AMINOTRANSFERASE” value [1]?
Answer: 61.33 u/L

Question: And the ALBUMIN [1]?
Answer: 4.5 G/DL

Question: What about the “ALKALINE PHOSPHATASE” value [1] of the same molecule?
Answer: 418.33 u/L

Question: What about the “ASPARTATE AMINOTRANSFERASE” value [1] of the same molecule?
Answer: 81.33 u/L

Question: What about the “BLOOD UREA NITROGEN” value [1] of the same molecule?
Answer: 14.33 mg/dL

Question: What about the “CARBON DIOXIDE” value [1] of the same molecule?
Answer: 34 mmol/L

Question: What about the CHLORIDE [1] of the same molecule?
Answer: 100.67 MEQ/L

Question: What about the CHOLESTEROL [1] of the same molecule?
Answer: 81 mg/dL

Question: What about the “CREATINE PHOSPHOKINASE” value [1] of the same molecule?
Answer: 171 u/L

Question: And the CREATININE [1]?
Answer: 0.12 mg/dL

Question: And the GLUCOSE [1]?
Answer: 147.33 mg/dL

Question: And the “LACTATE DEHYDROGENASE” value [1]?
Answer: 106.67 u/L

Question: And the LIPASE [1]?
Answer: 10 u/L

Question: And the PHOSPHORUS [1]?
Answer: 10.83 mg/dL

Question: And the POTASSIUM [1]?
Answer: 6.07 MEQ/L

Question: And the SODIUM [1]?
Answer: 143.73 MEQ/L

Question: What about the “TOTAL BILIRUBIN” value [1] of the same molecule?
Answer: 0.2 mg/dL

Question: What about the “TOTAL PROTEIN” value [1] of the same molecule?
Answer: 6.37 G/DL

Question: And the “URIC ACID” value [1]?
Answer: 0.87 mg/dL

Question: And the “ABSOLUTE BASOPHIL” value [2]?
Answer: 0 CELLS/uL

Question: And the “ABSOLUTE EOSINOPHIL” value [2]?
Answer: 58.67 CELLS/uL

Question: What about the “ABSOLUTE LYMPHOCYTE” value [2] of the same molecule?
Answer: 8116.67 CELLS/uL

Question: And the “ABSOLUTE MONOCYTE” value [2]?
Answer: 158 CELLS/uL

Question: What about the “ABSOLUTE SEGMENTED NEUTROPHIL” value [2] of the same molecule?
Answer: 700 CELLS/uL

Question: And the BASOPHIL [2]?
Answer: 0%

Question: And the EOSINOPHIL [2]?
Answer: 0.67%

Question: What about the “ERYTHROCYTE COUNT” value [2] of the same molecule?
Answer: 6.27 x10E6/uL

Question: And the HEMATOCRIT [2]?
Answer: 39%

Question: And the HEMOGLOBIN [2]?
Answer: 15.47 G/DL

Question: And the “LEUKOCYTE COUNT” value [2]?
Answer: 9.03 x10E3/uL

Question: And the LYMPHOCYTE [2]?
Answer: 90%

Question: What about the “MEAN CORPUSCULAR HEMOGLOBIN” value [2] of the same molecule?
Answer: 24.83 pg

Question: What about the “MEAN CORPUSCULAR HEMOGLOBIN CONCENTRATION” value [2] of the same molecule?
Answer: 39.77 G/DL

Question: And the “MEAN CORPUSCULAR VOLUME” value [2]?
Answer: 62.43 fL

Question: What about the MONOCYTE [2] of the same molecule?
Answer: 1.67%

Question: What about the NEUTROPHIL [2] of the same molecule?
Answer: 7.67%

Question: What about the “NUCLEATED RED BLOOD CELLS” value [2] of the same molecule?
Answer: 0 /100WBC

Question: And the “PLATELET COUNT” value [2]?
Answer: 1417 x10E3/uL

Question: And the “ALANINE AMINOTRANSFERASE” value [2]?
Answer: 61.33 u/L

Question: What about the ALBUMIN [2] of the same molecule?
Answer: 3.93 G/DL

Question: And the “ALKALINE PHOSPHATASE” value [2]?
Answer: 381 u/L

Question: What about the “ASPARTATE AMINOTRANSFERASE” value [2] of the same molecule?
Answer: 133.33 u/L

Question: What about the “BLOOD UREA NITROGEN” value [2] of the same molecule?
Answer: 25 mg/dL

Question: What about the “CARBON DIOXIDE” value [2] of the same molecule?
Answer: 19 mmol/L

Question: And the CHLORIDE [2]?
Answer: 105.33 MEQ/L

Question: And the CHOLESTEROL [2]?
Answer: 46 mg/dL

Question: What about the “CREATINE PHOSPHOKINASE” value [2] of the same molecule?
Answer: 544.33 u/L

Question: And the CREATININE [2]?
Answer: 0.22 mg/dL

Question: What about the GLUCOSE [2] of the same molecule?
Answer: 130.33 mg/dL

Question: What about the “LACTATE DEHYDROGENASE” value [2] of the same molecule?
Answer: 248.67 u/L

Question: What about the LIPASE [2] of the same molecule?
Answer: 9.33 u/L

Question: What about the PHOSPHORUS [2] of the same molecule?
Answer: 11.67 mg/dL

Question: What about the POTASSIUM [2] of the same molecule?
Answer: 5.57 MEQ/L

Question: And the SODIUM [2]?
Answer: 142.23 MEQ/L

Question: And the “TOTAL BILIRUBIN” value [2]?
Answer: 0.27 mg/dL

Question: What about the “TOTAL PROTEIN” value [2] of the same molecule?
Answer: 5.4 G/DL

Question: And the “URIC ACID” value [2]?
Answer: 1.83 mg/dL

Question: And the “ABSOLUTE BASOPHIL” value [3]?
Answer: 0 CELLS/uL

Question: And the “ABSOLUTE EOSINOPHIL” value [3]?
Answer: 0 CELLS/uL

Question: What about the “ABSOLUTE LYMPHOCYTE” value [3] of the same molecule?
Answer: 3825 CELLS/uL

Question: And the “ABSOLUTE MONOCYTE” value [3]?
Answer: 102 CELLS/uL

Question: And the “ABSOLUTE SEGMENTED NEUTROPHIL” value [3]?
Answer: 1173 CELLS/uL

Question: What about the BASOPHIL [3] of the same molecule?
Answer: 0%

Question: And the EOSINOPHIL [3]?
Answer: 0%

Question: What about the “ERYTHROCYTE COUNT” value [3] of the same molecule?
Answer: 7.26 x10E6/uL

Question: What about the HEMATOCRIT [3] of the same molecule?
Answer: 41.8%

Question: And the HEMOGLOBIN [3]?
Answer: 16.5 G/DL

Question: What about the “LEUKOCYTE COUNT” value [3] of the same molecule?
Answer: 5.1 x10E3/uL

Question: And the LYMPHOCYTE [3]?
Answer: 75%

Question: What about the “MEAN CORPUSCULAR HEMOGLOBIN” value [3] of the same molecule?
Answer: 22.7 pg

Question: What about the “MEAN CORPUSCULAR HEMOGLOBIN CONCENTRATION” value [3] of the same molecule?
Answer: 39.5 G/DL

Question: What about the “MEAN CORPUSCULAR VOLUME” value [3] of the same molecule?
Answer: 57.6 fL

Question: What about the MONOCYTE [3] of the same molecule?
Answer: 2%

Question: And the NEUTROPHIL [3]?
Answer: 23%

Question: And the “NUCLEATED RED BLOOD CELLS” value [3]?
Answer: 0 /100WBC

Question: What about the “PLATELET COUNT” value [3] of the same molecule?
Answer: 1575 x10E3/uL

Question: And the “ALANINE AMINOTRANSFERASE” value [3]?
Answer: 38 u/L

Question: What about the ALBUMIN [3] of the same molecule?
Answer: 3.9 G/DL

Question: And the “ALKALINE PHOSPHATASE” value [3]?
Answer: 162 u/L

Question: What about the “ASPARTATE AMINOTRANSFERASE” value [3] of the same molecule?
Answer: 70 u/L

Question: What about the “BLOOD UREA NITROGEN” value [3] of the same molecule?
Answer: 24 mg/dL

Question: What about the “CARBON DIOXIDE” value [3] of the same molecule?
Answer: 25 mmol/L

Question: And the CHLORIDE [3]?
Answer: 100 MEQ/L

Question: What about the CHOLESTEROL [3] of the same molecule?
Answer: 64 mg/dL

Question: What about the “CREATINE PHOSPHOKINASE” value [3] of the same molecule?
Answer: 119 u/L

Question: And the CREATININE [3]?
Answer: 0.1 mg/dL

Question: And the GLUCOSE [3]?
Answer: 89 mg/dL

Question: And the “LACTATE DEHYDROGENASE” value [3]?
Answer: 148 u/L

Question: What about the LIPASE [3] of the same molecule?
Answer: 7 u/L

Question: What about the PHOSPHORUS [3] of the same molecule?
Answer: 15.2 mg/dL

Question: What about the POTASSIUM [3] of the same molecule?
Answer: 4.09 MEQ/L

Question: What about the SODIUM [3] of the same molecule?
Answer: 144.1 MEQ/L

Question: What about the “TOTAL BILIRUBIN” value [3] of the same molecule?
Answer: 0.5 mg/dL

Question: And the “TOTAL PROTEIN” value [3]?
Answer: 5.9 G/DL

Question: And the “URIC ACID” value [3]?
Answer: 2.1 mg/dL
